Molecules are shown by their SMILES. pIC50: −log10 of the molar value. Structures can show the parent of a compound that is named as a salt. Bounds are passed on as bounds.

Experiment [1] addresses T1, JH2 domain of human Tyk2 (Homo sapiens, UniProt P29597).
T1 construct: 10×His-tagged TYK2 JH2 domain (amino acid 575-876)
Kind of experiment: JH2 biochemical assay (TR-FRET probe displacement). It counts as binding. The note with it: JH2 biochemical assay. The method, boiled down:
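10×His-tagged human TYK2 JH2 (aa 575-876, 2 nM) incubated 60 min with 2 nM fluorescent probe, 0.1 nM Tb anti-His antibody and compound (10-point 3-fold series from […] top). TR-FRET 520/495 nm ratio, falling with probe displacement, normalized and fitted to a 4-parameter logistic for IC50.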
In general terms: In TR-FRET formats the signal depends on donor and acceptor labels being close together.

Experiment [2] has as its system Tyk2 kinase activity on STAT4. Kind of experiment: pSTAT4 cell assay (MSD, NK92 cells). The note with it: compounds 1 hr, stimulated 15 minutes. It counts as cell-based. A digest of the protocol:
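Serum-starved NK92 cells were preincubated 1 hr with compound (10-point, four-fold dilutions from 10 μM), then stimulated with 30 ng/mL IL2 for 15 minutes. Lysates were read on an MSD plate assay using anti-STAT4 antibodies, and IC50 came from a 4-parameter logistic fit of normalized percent activity.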

Experiment [3] deals with JAK2 kinase activity on STAT5. As to the kind of experiment: pSTAT5 cell assay (MSD, TF1 cells, IL-3 stimulated). It counts as cell-based. The settings on record: Homo sapiens, TF-1, compounds 1 hour, 30 ng/mL IL-3 for 15 minutes. The procedure: Compounds of the disclosure were assessed for their ability to inhibit the JAK2 kinase activity on STAT5 utilizing an MSD-platform plate-based assay format. TF1 cells natively expressing STAT5 and JAK2 were serum-starved to reduce background phosphorylation levels, then cells were treated with compounds of disclosure for 1 hour with a 10-point four-fold dilution series starting at 10 μM. Cells were then stimulated with 30 ng/mL IL-3 for 15 minutes. Cells were then lysed and pSTAT5 levels were quantitated using an MSD plate-based assay with anti-STAT5 antibodies. The data were normalized and the percent activity versus log concentration of compound was fitted with a 4-parameter logistic model to generate a curve and an IC50 value.

Experiment [4] has as its system JAK1 kinase activity on STAT3. As to the kind of experiment: pSTAT3 cell assay (MSD, TF1 cells, IL-6 stimulated). It counts as cell-based. The settings on record: Homo sapiens, TF-1, compounds 1 hour, 30 ng/mL IL-6 for 15 minutes. The procedure:
The inhibitory potency of compounds of the disclosure against the JAK1 kinase activity on STAT3 was evaluated using an MSD-platform plate-based assay format. TF1 cells natively expressing STAT3 and JAK1 were serum-starved to reduce background phosphorylation levels, then cells were treated with compounds of the disclosure for 1 hour with a 10-point four-fold dilution series starting at 10 μM. Cells were then stimulated with 30 ng/mL interleukin 6 (IL-6) for 15 minutes. Cells were lysed and pSTAT3 levels were quantitated using an MSD plate-based assay with anti-STAT3 antibodies. The data were normalized and the percent activity versus log concentration of compound was fitted with a 4-parameter logistic model to generate IC50 curves.

T1 sequence (P29597 575-876): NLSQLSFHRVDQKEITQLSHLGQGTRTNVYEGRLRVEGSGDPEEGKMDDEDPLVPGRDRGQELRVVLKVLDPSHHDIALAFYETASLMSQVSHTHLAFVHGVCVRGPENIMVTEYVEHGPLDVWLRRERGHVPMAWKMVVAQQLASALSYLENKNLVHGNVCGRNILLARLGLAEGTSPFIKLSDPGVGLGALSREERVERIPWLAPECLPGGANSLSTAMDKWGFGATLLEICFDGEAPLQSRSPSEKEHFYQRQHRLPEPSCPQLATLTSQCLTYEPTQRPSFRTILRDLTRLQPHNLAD

The term pIC50 denotes the IC50 on a negative log10 scale, so that one unit is a factor of ten. In the case of `COc1cc(N2CC3(CC3)c3cnc(NC(C)=O)cc32)nc(C(C)(F)F)n1` [Example 1, N-(1′-(2-(1,1-difluoroethyl)-6-methoxypyrimidin-4-yl)-1′,2′-dihydrospiro[cyclopropane-1,3′-pyrrolo[3,2-c]pyridin]-6′-yl)acetamide], the negative logarithm of the IC50 (pIC50) in experiment [1] is not below 8.00; in experiment [2], 6.00 to 7.00; in experiment [3], not above 6.00; in experiment [4], not above 6.00.

Consider `COc1cc(C(C)(F)F)nc(N2CC3(CC3)c3cnc(NC(C)=O)cc32)n1` [Example 2, N-(1′-(4-(1,1-difluoroethyl)-6-methoxypyrimidin-2-yl)-1′,2′-dihydrospiro[cyclopropane-1,3′-pyrrolo[3,2-c]pyridin]-6′-yl)acetamide], for which the negative logarithm of the IC50 (pIC50) in experiment [1] is not below 8.00; in experiment [2], 6.00 to 7.00; in experiment [3], not above 6.00; in experiment [4], not above 6.00.

For the compound `COc1cc(N2CC3(CC3)c3cnc(NC(C)=O)cc32)nc(C(C)(F)F)c1` [Example 9, N-(1′-(6-(1,1-difluoroethyl)-4-methoxypyridin-2-yl)-1′,2′-dihydrospiro[cyclopropane-1,3′-pyrrolo[3,2-c]pyridin]-6′-yl)acetamide], the negative-log IC50 (pIC50) is not below 8.00 in experiment [1], 7.00 to 8.00 in experiment [2], not above 6.00 in experiment [3] and not above 6.00 in experiment [4].

`CNc1cc(N2CC3(CC3)c3cnc(NC(C)=O)cc32)nc(C(C)(F)F)n1` [Example 10, N-(1′-(2-(1,1-difluoroethyl)-6-(methylamino)pyrimidin-4-yl)-1′,2′-dihydrospiro[cyclopropane-1,3′-pyrrolo[3,2-c]pyridin]-6′-yl)acetamide]: the pIC50 in experiment [1] is not below 8.00; in experiment [2], 7.00 to 8.00; in experiment [3], not above 6.00; in experiment [4], not above 6.00.

For the compound `CCc1cc(N2CC3(CC3)c3cnc(NC(C)=O)cc32)nc(C(C)(F)F)n1` [Example 11, N-(1′-(2-(1,1-difluoroethyl)-6-ethylpyrimidin-4-yl)-1′,2′-dihydrospiro[cyclopropane-1,3′-pyrrolo[3,2-c]pyridin]-6′-yl)acetamide], the negative logarithm of the IC50 (pIC50) in experiment [1] is not below 8.00; in experiment [2], 7.00 to 8.00; in experiment [3] it was not above 6.00; in experiment [4] it was not above 6.00.

Turning to `CC(=O)Nc1cc2c(cn1)C1(CC1)CN2c1cccc(C(C)(F)F)n1` [Example 12, N-(1′-(6-(1,1-difluoroethyl)pyridin-2-yl)-1′,2′-dihydrospiro[cyclopropane-1,3′-pyrrolo[3,2-c]pyridin]-6′-yl)acetamide], the pIC50 is not below 8.00 in experiment [1], 7.00 to 8.00 in experiment [2], not above 6.00 in experiment [3] and not above 6.00 in experiment [4].

On to `CC(=O)Nc1cc2c(cn1)C1(CC1)CN2c1ccnc(C(C)(F)F)n1` [Example 13, N-(1′-(2-(1,1-difluoroethyl)pyrimidin-4-yl)-1′,2′-dihydrospiro[cyclopropane-1,3′-pyrrolo[3,2-c]pyridin]-6′-yl)acetamide], for which the pIC50 in experiment [1] is 7.00 to 8.00; in experiment [2] it was 6.00 to 7.00; in experiment [3], not above 6.00; in experiment [4], not above 6.00.

Consider `CC(=O)Nc1cc2c(cn1)C1(CC1)CN2c1nccc(C(C)(F)F)n1` [Example 14, N-(1′-(4-(1,1-difluoroethyl)pyrimidin-2-yl)-1′,2′-dihydrospiro[cyclopropane-1,3′-pyrrolo[3,2-c]pyridin]-6′-yl)acetamide], for which the pIC50 in experiment [1] was 7.00 to 8.00; in experiment [2] it was 6.00 to 7.00; in experiment [3], not above 6.00; in experiment [4] it was not above 6.00.

As for `CC(=O)Nc1cc2c(cn1)C1(CC1)CN2c1cccc(C2CCOC2)n1` (stereo not drawn) [Example 16, N-(1′-(6-(tetrahydrofuran-3-yl)pyridin-2-yl)-1′,2′-dihydrospiro[cyclopropane-1,3′-pyrrolo[3,2-c]pyridin]-6′-yl)acetamide], the negative logarithm of the IC50 (pIC50) in experiment [1] is not below 8.00; in experiment [2], 7.00 to 8.00; in experiment [3], not above 6.00; in experiment [4] it was not above 6.00.

For `CC(=O)Nc1cc2c(cn1)C1(CC1)CN2c1ccnc(C(C)(C)F)n1` [Example 17, N-(1′-(2-(2-fluoropropan-2-yl)pyrimidin-4-yl)-1′,2′-dihydrospiro[cyclopropane-1,3′-pyrrolo[3,2-c]pyridin]-6′-yl)acetamide], the pIC50 in experiment [1] was not below 8.00; in experiment [2], 6.00 to 7.00; in experiment [3], not above 6.00; in experiment [4], not above 6.00.

As for `COC1(c2cccc(N3CC4(CC4)c4cnc(NC(C)=O)cc43)n2)CCOC1` (stereo not drawn) [Example 18, N-(1′-(6-(3-methoxytetrahydrofuran-3-yl)pyridin-2-y1)-1′,2′-dihydrospiro[cyclopropane-1,3′-pyrrolo[3,2-c]pyridin]-6′-yl)acetamide], the negative-log IC50 (pIC50) in experiment [1] was not below 8.00; in experiment [2], 7.00 to 8.00; in experiment [3] it was not above 6.00; in experiment [4], not above 6.00.

Consider `CC(=O)Nc1cc2c(cn1)C1(CC1)CN2c1cccc(C2(O)CCOC2)n1` (stereo not drawn) [Example 19, N-(1′-(6-(3-hydroxytetrahydrofuran-3-yl)pyridin-2-yl)-1′,2′-dihydrospiro[cyclopropane-1,3′-pyrrolo[3,2-c]pyridin]-6′-yl)acetamide], for which the negative logarithm of the IC50 (pIC50) in experiment [1] was not below 8.00; in experiment [2], 7.00 to 8.00; in experiment [3], not above 6.00; in experiment [4], not above 6.00.

Consider `CC(=O)Nc1cc2c(cn1)C1(CC1)CN2c1cc(C2CC2)nc(C(C)(F)F)n1` [Example 21, N-(1′-(6-cyclopropyl-2-(1,1-difluoroethyl)pyrimidin-4-yl)-1′,2′-dihydrospiro[cyclopropane-1,3′-pyrrolo[3,2-c]pyridin]-6′-yl)acetamide], for which the negative logarithm of the IC50 (pIC50) in experiment [1] was not below 8.00; in experiment [2], 7.00 to 8.00; in experiment [3] it was not above 6.00; in experiment [4], not above 6.00.

In the case of `CC(=O)Nc1cc2c(cn1)CCN2c1cccc(C(C)(F)F)n1` [Example 32, N-(1-(6-(1,1-difluoroethyl)pyridin-2-yl)-2,3-dihydro-1H-pyrrolo[3,2-c]pyridin-6-yl)acetamide], the pIC50 in experiment [1] was 7.00 to 8.00; in experiment [2] it was not above 6.00; in experiment [3] it was not above 6.00; in experiment [4], not above 6.00.

For `CC(=O)Nc1cc2c(cn1)C1(CC1C)CN2c1ccnc(C(C)(F)F)n1` (stereo not drawn) [Example 37, N-(1′-(2-(1,1-difluoroethyl)pyrimidin-4-yl)-2-methyl-1′,2′-dihydrospiro[cyclopropane-1,3′-pyrrolo[3,2-c]pyridin]-6′-yl)acetamide], the pIC50 is 7.00 to 8.00 in experiment [1], not above 6.00 in experiment [2], not above 6.00 in experiment [3] and not above 6.00 in experiment [4].

As for `CC(=O)Nc1cc2c(cn1)C(C)(C)CN2c1ccnc(C(C)(F)F)n1` [Example 38, N-(1-(2-(1,1-difluoroethyl)pyrimidin-4-yl)-3,3-dimethyl-2,3-dihydro-1H-pyrrolo[3,2-c]pyridin-6-yl)acetamide], the pIC50 in experiment [1], in experiment [2], in experiment [3] and in experiment [4] was not above 6.00 each time.

With `CC(=O)Nc1cc2c(cn1)C(C)(C)CN2c1nccc(C(C)(F)F)n1` [Example 39, N-(1-(4-(1,1-difluoroethyl)pyrimidin-2-yl)-3,3-dimethyl-2,3-dihydro-1H-pyrrolo[3,2-c]pyridin-6-yl)acetamide], the pIC50 in experiment [1], in experiment [2], in experiment [3] and in experiment [4] was not above 6.00 each time.

Regarding `CC(=O)Nc1cc2c(cn1)C1(CCC1)CN2c1ccnc(C(C)(F)F)n1` [Example 41, N-(1′-(2-(1,1-difluoroethyl)pyrimidin-4-yl)-1′,2′-dihydrospiro[cyclobutane-1,3′-pyrrolo[3,2-c]pyridin]-6′-yl)acetamide], the pIC50 in experiment [1] was 7.00 to 8.00; in experiment [2] it was not above 6.00; in experiment [3] it was not above 6.00; in experiment [4], not above 6.00.

In the case of `CC(=O)Nc1cc2c(cn1)C1(CCN(C)CC1)CN2c1cccc(C(C)(F)F)n1` [Example 276, N-(1′-(6-(1,1-difluoroethyl)pyridin-2-yl)-1-methyl-1′,2′-dihydrospiro[piperidine-4,3′-pyrrolo[3,2-c]pyridin]-6′-yl)acetamide trifluoroacetate], the pIC50 in experiment [1], in experiment [3] and in experiment [4] was not above 6.00 each time.

The values are drawn from patent US20260258032A1, “TYROSINE KINASE 2 INHIBITORS AND USES THEREOF” (BIOGEN MA INC., priority 2022, published 2026).
